Measured values as given in the supplement of paper PMC10307832.

Legend:
Assay in all cases: relative viability (nuclei count vs DMSO), 5 days (fraction); higher = more cells survive
[1] = compound: C1=CC2=C(C=C(C(=C2N=C1)O)N=NC3=CC4=C(C=C3)C=C(C=C4)S(=O)(=O)O)S(=O)(=O)O + O=C(c1cc(Cc2n[nH]c(=O)c3ccccc23)ccc1F)N1CCN(C(=O)C2CC2)CC1 [Olaparib] (partner 8 µM)
In short: (§1)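 Five library-drug doses in √10 steps were combined with a fixed anchor-drug dose, or a single drug was given alone, by pin tool to lung cancer cell lines in 1536-well plates the day after seeding. Nuclei were stained and counted after 5 days. Relative viability is the nuclei count in treated wells over that in vehicle wells, taken as the median of duplicate plates.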

[2] = compound: O=C(NC1CCNCC1)c1n[nH]cc1NC(=O)c1c(Cl)cccc1Cl [AT-7519] + O=C(CCCCCCC(=O)Nc1ccccc1)NO [Vorinostat] (partner 1 µM)
In short: as §1

[3] = compound: C1=CC2=C(C=C(C(=C2N=C1)O)N=NC3=CC4=C(C=C3)C=C(C=C4)S(=O)(=O)O)S(=O)(=O)O + Nc1nc2[nH]cc(CCc3ccc(C(=O)N[C@@H](CCC(=O)O)C(=O)O)cc3)c2c(=O)[nH]1 [Pemetrexed] (partner 0.2 µM)
In short: as §1

[4] = compound: O=C(NC1CCNCC1)c1n[nH]cc1NC(=O)c1c(Cl)cccc1Cl [AT-7519] + CS(=O)(=O)N1CCN(Cc2cc3nc(-c4cccc5[nH]ncc45)nc(N4CCOCC4)c3s2)CC1 [Pictilisib] (partner 1 µM)
In short: as §1

Cell Line | relative viability ([1]; first compound 0.08 µM) | relative viability ([1]; first compound 0.253 µM) | relative viability ([1]; first compound 0.8 µM) | relative viability ([1]; first compound 2.53 µM) | relative viability ([1]; first compound 8 µM) | relative viability ([2]; first compound 0.01 µM) | relative viability ([2]; first compound 0.03162 µM) | relative viability ([2]; first compound 0.3162 µM) | relative viability ([2]; first compound 1 µM) | relative viability ([3]; first compound 0.08 µM) | relative viability ([3]; first compound 0.253 µM) | relative viability ([3]; first compound 0.8 µM) | relative viability ([3]; first compound 2.53 µM) | relative viability ([3]; first compound 8 µM) | relative viability ([4]; first compound 0.01 µM) | relative viability ([4]; first compound 0.03162 µM) | relative viability ([4]; first compound 0.3162 µM) | relative viability ([4]; first compound 1 µM)
LXF-289 | 1.26 | 1 | 0.973 | 1.05 | 1.03 | 0.815 | 0.884 | 0.771 | 0.773 | 0.919 | 0.869 | 0.841 | 0.962 | 0.885 | 0.819 | 0.838 | 0.787 | 0.746
NCI-H23 | 0.27 | 0.339 | 0.343 | 0.324 | 0.359 | 0.598 | 0.619 | 0.513 | 0.4 | 0.681 | 0.648 | 0.669 | 0.579 | 0.693 | 0.534 | 0.438 | 0.428 | 0.123
NCI-H322M | 0.733 | 0.705 | 0.691 | 0.78 | 0.834 | 0.846 | 0.982 | 0.731 | 0.83 | 0.663 | 0.663 | 0.608 | 0.587 | 0.669 | 0.565 | 0.495 | 0.473 | 0.439
NCI-H522 | 0.601 | 0.625 | 0.564 | 0.561 | 0.708 | 0.933 | 0.815 | 0.963 | 1.05 | 0.949 | 1.03 | 1.04 | 0.971 | 1.09 |  |  |  | 
NCI-H727 | 0.635 | 0.676 | 0.684 | 0.859 | 0.665 | 1.17 | 1.08 | 1.11 | 0.794 |  |  |  |  |  | 0.354 | 0.263 | 0.197 | 0.204
NCI-H1299 | 1.01 | 0.95 | 0.935 | 0.956 | 0.976 |  |  |  |  |  |  |  |  |  | 0.865 | 0.738 | 0.507 | 0.127
NCI-H1563 |  |  |  |  |  |  |  |  |  | 0.776 | 0.744 | 0.726 | 0.79 | 0.376 | 0.591 | 0.612 | 0.764 | 0.511
NCI-H1648 |  | 0.793 |  |  | 0.893 | 0.479 |  | 0.29 | 0.3 |  | 0.695 |  |  | 0.855 |  |  |  | 
NCI-H1703 | 0.3 |  | 0.339 | 0.475 | 0.41 |  |  |  |  |  |  |  |  |  | 0.322 | 0.234 | 0.241 | 0.129
NCI-H1792 | 0.579 | 0.253 | 0.355 | 0.507 | 0.432 |  |  |  |  | 1.02 | 0.764 | 0.821 | 0.821 | 0.897 | 0.196 | 0.218 | 0.234 | 0.252
NCI-H2342 | 0.476 | 0.466 | 0.452 | 0.462 | 0.711 | 0.773 | 0.696 | 0.772 | 0.631 | 0.82 | 0.791 | 0.766 | 0.807 | 0.765 |  |  |  | 
SW 900 | 1.1 | 0.826 | 0.75 | 0.878 | 0.757 | 0.398 | 0.482 | 0.294 | 0.493 | 0.479 | 0.49 | 0.468 | 0.531 | 0.481 |  |  |  | 
